# Assays:
# [1] = system: Colon26 large intestine cancer cells; assay: Colon26 tumor-bearing mice, HMGN peptide in combination with anti-PD-L1 antibody, tumor volume; type: in vivo, mouse; conditions: for growth of Colon26 solid tumor, tumor volume 26 days after tumor cell implantation (FIG. 5, FIG. 6): peptide equimolar to Pep1 300 ng/mouse (two doses, common ratio 5, for Pep1ΔN2 and Pep1 mutant), vs anti-PD-L1 alone; for anti-tumor effect compared with Pep1 (FIG. 11) / anti-tumor effect, tumor volume 24 days after tumor implantation (FIG. 11): same molar dose as 300 ng of Pep1; for anti-tumor effect, tumor volume 24 days after tumor implantation (FIG. 11): vs anti-PD-L1 antibody single administration group; for tumor growth (time-dependent change in tumor volume, FIG. 7): Pep1 60 and 300 ng/mouse, other peptides three equimolar doses, common ratio 5 (Pep1core 8 to 200 ng/mouse)
# From the text: (§1) Seven-week-old male BALB/c mice were used in groups of 8 mice, and Colon26 large intestine cancer cells were subcutaneously transplanted into the right flank at 2×10^5 cells/mouse.
# (§2) An anti-mouse PD-L1 antibody (clone 10F.9G2) and an anti-mouse CD4 depleting antibody (clone GK1.5) were purchased from BioXcell.
# (§3) The HMGN peptide was intraperitoneally administered at a dose described below four times in total at 9, 14, 17 and 20 days after tumor cell implantation. The anti-mouse PD-L1 antibody was intraperitoneally administered at 200 μg/mouse four times in total at 4, 8, 14 and 18 days after tumor cell implantation. The anti-mouse CD4 antibody was intraperitoneally administered at a dose of 200 μg/mouse twice in total at 5 and 9 days after tumor cell implantation. The long diameter and short diameter of the solid tumor were measured every 3 to 4 days, and tumor volume was calculated by the following calculation formula. Tumor volume (mm^3)=(Long diameter; mm)×(Short diameter; mm)^2×0.5236
# [2] = system: Colon26 large intestine cancer cells; assay: Colon26 tumor-bearing mice, HMGN peptide single administration, tumor volume; type: in vivo, mouse; conditions: Pep1 alone; vs control group
# Experimental: as §1, §3
# A partial fragment (human HMGN1 NBD peptide 1; Pep1, SEQ ID NO: 3) of human HMGN1 (SEQ ID NO: 17) corresponding to mPep1 was prepared and administered to Colon26 tumor-bearing mice alone or in combination with an anti-PD-L1 antibody (200 μg/mouse), and the anti-tumor effect was investigated.
# [3] = system: Colon26 large intestine cancer cells; assay: Colon26 tumor-bearing mice, HMGN peptide in combination with anti-CD4 antibody, tumor volume; type: in vivo; conditions: Pep1 800 ng/mouse + anti-CD4 antibody 200 μg/mouse
# From the text: as §1, §2, §3
# The partial peptide of human HMGN1, Pep1 (800 ng/mouse), was administered to Colon26 tumor-bearing mice in combination with an anti-CD4 antibody (200 μg/mouse), and the anti-tumor effect was investigated.
# [4] = + anti-PD-L1 antibody 200 μg/mouse
substance,measurement,setting,value
"Human HMGN1 NBD-peptide 1 Δ N3 (SARLSAKPPAKVEAKPKKAAAKD; Human HMGN1 NBD-peptide 1 delta-N3 (Pep1 delta-N3)) [Pep1ΔN3, N-terminal 14 residues of Pep1 removed]","growth of Colon26 solid tumor, tumor volume 26 days after tumor cell implantation (FIG. 5, FIG. 6)",[1]; [4],ineffective
Human HMGN2 NBD-peptide [PepN2],anti-tumor effect compared with Pep1 (FIG. 11),[1]; + anti-PD-L1 antibody,at the same level as Pep1
same,"anti-tumor effect, tumor volume 24 days after tumor implantation (FIG. 11)",[1]; + anti-PD-L1 antibody,significant anti-tumor effects
"Human HMGN1 peptide O (KEEPKRRSARLSAKPPAKVEAKPKKAAAKDKSSDKK; Human HMGN1 peptide O (PepO)) [known HMGN peptide of U.S. Pat. No. 8,227,417, reference compound]",complete regression of solid tumors,"[1]; 954 ng/mouse, + anti-PD-L1 antibody 200 μg/mouse",3 mice
same,"anti-tumor effect, tumor volume 24 days after tumor implantation (FIG. 9, FIG. 10)","[1]; dose of 318 ng/mouse (equimolar to Pep1 300 ng/mouse), + anti-PD-L1 antibody 200 μg/mouse",no anti-tumor effect
same,"tumor growth, tumor volume 24 days after tumor implantation (FIG. 9, FIG. 10)","[1]; triple dose of 954 ng/mouse, + anti-PD-L1 antibody 200 μg/mouse",significantly suppressed tumor growth
"Human HMGN1 NBD-peptide 1 Δ C1 (SSAEGAAKEEPKRRSARLSAKPPAKVEAKPKK; Human HMGN1 NBD-peptide 1 delta-C1 (Pep1 delta-C1)) [Pep1ΔC1, C-terminal 5 residues of Pep1 removed]",complete regression of solid tumors,"[1]; dose of 53 ng, + anti-PD-L1 antibody",1 case
same,complete regression of solid tumors,"[1]; doses of 11 and 265 ng/mouse, + anti-PD-L1 antibody",3 cases out of 8 cases
same,"growth of Colon26 solid tumor, tumor volume 26 days after tumor cell implantation (FIG. 5, FIG. 6)",[1]; [4],significantly suppressed
Human HMGN4 NBD-peptide [PepN4],anti-tumor effect compared with Pep1 (FIG. 11),[1]; + anti-PD-L1 antibody,at the same level as Pep1
same,"anti-tumor effect, tumor volume 24 days after tumor implantation (FIG. 11)",[1]; + anti-PD-L1 antibody,significant anti-tumor effects
"Human HMGN1 NBD-peptide 1 mutant (SAEGAAKEEPKDDSADLSAKPPAKVEAKPKKAAAKD; Human HMGN1 NBD-peptide 1 mutant (Pep1 mutant)) [R→D mutant of Pep1, N-terminal 1 residue removed]","growth of Colon26 solid tumor, tumor volume 26 days after tumor cell implantation (FIG. 5, FIG. 6)",[1]; [4],same anti-tumor action as Pep1
"Human HMGN1 NBD-peptide 1 Δ C2 (SSAEGAAKEEPKRRSARLSAKPPAKVEA; Human HMGN1 NBD-peptide 1 delta-C2 (Pep1 delta-C2)) [Pep1ΔC2, C-terminal 9 residues of Pep1 removed]","growth of Colon26 solid tumor, tumor volume 26 days after tumor cell implantation (FIG. 5, FIG. 6)",[1]; [4],ineffective
Human HMGN3 NBD-peptide [PepN3],"anti-tumor effect, tumor volume 24 days after tumor implantation (FIG. 11)",[1]; + anti-PD-L1 antibody,no anti-tumor effect
"Human HMGN1 NBD-peptide 1 Δ N2 (EPKRRSARLSAKPPAKVEAKPKKAAAKD; Human HMGN1 NBD-peptide 1 delta-N2 (Pep1 delta-N2)) [Pep1ΔN2, N-terminal 9 residues of Pep1 removed]","tumor growth (time-dependent change in tumor volume, FIG. 7)",[1]; [4],synergistic effect
same,solid tumors completely regressed,"[1]; dose of 9.4 ng/mouse, + anti-PD-L1 antibody",4 cases out of 8 cases
same,"growth of Colon26 solid tumor, tumor volume 26 days after tumor cell implantation (FIG. 5, FIG. 6)",[1]; [4],similarly suppressed solid tumors
mouse HMGN1 NBD-peptide 2 (VQIKGKRGAKGKQADVADQQTTELPAENGETENQSPASEE; mouse HMGN1 NBD-peptide 2 (mPep2)) [region at the C-terminal side of mouse HMGN1 NBD],tumor volume 24 days after Colon26 tumor cell implantation (FIG. 2),"[1]; doses of 30, 300 ng/mouse (mPep2 same molar number), + anti-PD-L1 antibody, vs control group",ineffective
same,"tumor growth (time-dependent change in tumor volume, FIG. 1)","[1]; mPep1 30 or 300 ng/mouse, mPep2 33 or 330 ng/mouse, i.p. four times, + anti-PD-L1 antibody 200 μg/mouse",no combined effect
"Human HMGN1 NBD-peptide 1 Δ C (SSAEGAAKEEPKRRSARLSAKPPA; Human HMGN1 NBD-peptide 1 delta-C (Pep1 delta-C)) [Pep1 ΔC, C-terminal 13 residues of Pep1 removed]","growth of Colon26 solid tumor, tumor volume 26 days after tumor cell implantation (FIG. 5, FIG. 6)",[1]; [4],anti-tumor effect of the peptide was lost
"HMGN5 NBD-peptide (GQGDMRQEPKRRSARLSAMLVPVTPEVKPKRTSSSRKMKTKSD; Human HMGN5 NBD-peptide (N5Pep)) [PepN5, partial region containing NBD of human HMGN5]",anti-tumor effect compared with Pep1 (FIG. 11),[1]; + anti-PD-L1 antibody,at the same level as Pep1
same,"anti-tumor effect, tumor volume 24 days after tumor implantation (FIG. 11)",[1]; + anti-PD-L1 antibody,significant anti-tumor effects
Human HMGN1 NBD-peptide 1 core (EPKRRSARLSAKPPAKVEAKPKK; Human HMGN1 NBD-peptide1 core (Pep1core)) [10th to 32nd residues of Pep1],"tumor growth (time-dependent change in tumor volume, FIG. 7)",[1]; [4],suppressed in a dose-dependent manner
same,"tumor volume 27 days after implantation, difference from anti-PD-L1 antibody single administration group (FIG. 8)","[1]; doses of 40 and 200 ng/mouse, + anti-PD-L1 antibody",significant difference was observed
Human HMGN1 NBD-peptide 1 (SSAEGAAKEEPKRRSARLSAKPPAKVEAKPKKAAAKD; Human HMGN1 NBD-peptide 1 (Pep1)),"growth of Colon26 solid tumor, tumor volume 23 days after tumor implantation (FIG. 3)",[2],significantly suppressed growth of Colon26 solid tumor in a dose-dependent manner
same,"Colon26 solid tumor growth (FIG. 12, FIG. 13; tumor volume 24 days after implantation)",[3],synergistically suppressed Colon26 solid tumor growth
same,anti-tumor effect (FIG. 3),"[1]; 3 ng/mouse and 30 ng/mouse, + anti-PD-L1 antibody",effective
same,"tumor growth (time-dependent change in tumor volume, FIG. 7)",[1]; [4],synergistically suppressed tumor growth
same,"tumor growth (FIG. 3, FIG. 4)",[1]; Pep1 + anti-PD-L1 antibody 200 μg/mouse,synergistically suppressed tumor growth
same,potency difference in the anti-tumor action between PepO and Pep1,[1]; both + anti-PD-L1 antibody,≥ 300 times
same,"growth of Colon26 solid tumor, tumor volume 26 days after tumor cell implantation (FIG. 5, FIG. 6)",[1]; [4],significantly suppressed
"Human HMGN1 NBD-peptide 1 Δ N1 (AAKEEPKRRSARLSAKPPAKVEAKPKKAAAKD; Human HMGN1 NBD-peptide 1 delta-N1 (Pep1 delta-N1)) [Pep1ΔN1, N-terminal 5 residues of Pep1 removed]","Colon26 solid tumor growth (FIG. 5, FIG. 6)","[1]; doses of 53 and 267 ng/mouse, + anti-PD-L1 antibody 200 μg/mouse",significantly suppressed
